Consider three substances from patent publication US20230346905A1, “P[…] AGAINST […] ME[…] […] MEN A ANTIGEN” (GlaxosmithKline Biologicals SA, priority 2020, published 2023).

Entries after “also recorded” stand apart in the source; their conditions may differ.

Series [1] deals with anti-MenA polyclonal serum. Put plainly: Competitive ELISA with anti-MenA polyclonal serum, CPS as coating. The class given is binding. Particulars: serum from mice immunized with MenA-CRM197 conjugate, FIG. 5B. A general note: An ELISA detects its analyte on a solid surface through an enzyme-linked reagent.
Another series concerns anti-deOAc MenA serum. Put plainly: Competitive ELISA against anti-deOAc MenA serum. The class given is binding. How it is done:
This corroborated the propensity of carba DP8 to anti-MenA antibody binding. The different fragments were then tested against an anti-deOAc MenA serum.

The test system of another series is anti-carbaMenA DP8 serum. Kind of series: Competitive ELISA of anti-carbaMenA DP8 serum. The class given is binding, BALB/c female mice. How it is done: (§1) Conjugates prepared as previously described from sized MenA polysaccharide with avDP8.5 and ˜15 were used as controls.
(§2) Mice received three subcutaneously (s.c.) doses (2 μg on saccharide base), two weeks apart. The neo-glycoconjugate induced an immune response at week 3, as observed by assaying the sera elicited by the conjugate against the same product coated on ELISA plates. At the serum dilutions tested no anti-CRM197 antibodies were detectable. Each of the conjugates gave antibodies recognizing the conjugated antigen and the specificity of this recognition was confirmed by competitive ELISA.

In a further series the test system is MenA CPS. Kind of series: Mice immunization, ELISA anti-MenA CPS IgG. The class given is in vivo, BALB/c mice. Particulars: first study, Table 4. How it is done: as §1, §2
To test the immunogenicity of the conjugated carba DP6 and DP8 analogues with and without random acetylation, groups of eight BALB/c female mice were immunized with the neoglycoconjugates. Conjugated sized MenA polysaccharide was used as control. Mice were immunized with three subcutaneously (s.c.) doses (2 μg on saccharide base) two weeks apart. […]
All mice were housed under specific pathogen-free conditions. […] The antibody response induced by the glycoconjugates has been measured by ELISA. […] Finally, plates were incubated for 30 min at room temperature and read at 405 nm using the plate reader Spectramax 190. Sera titers were expressed as the reciprocal of sera dilution corresponding to a cut-off OD=1. […]

In series [2] the test system is bactericidal anti-MenA mAb (JW-A1). Kind of series: Competitive ELISA with anti-MenA mAb, CPS as coating. The following applies: FIG. 5A. The class given is binding. From the text: (FIG. 5C) Competitive SPR of binding between anti-MenA mAb and immobilized biotylinated CPS. MenA CPS and deOAc CPS were the positive controls and the beta-glucan Laminarin was the negative control in A and B. MenA CPS and fragments thereof were used as positive controls and anti-MenC mAb was flown on the chip as negative control in C.
An important prerequisite for the immunogenicity of the carba-analogues is their ability to mimic the natural MenA CPS. To investigate this property in vitro, binding of oligomers with the different length to a bactericidal anti-MenA mAb (JW-A1) in comparison to CPS and a medium length oligomer with avDP ˜15 was tested as described in Giuntini, S. et al., PLoS One, 2012, 7, e34272; Tsang, R. S. et al., Clin. Diagn. Lab. Immunol., 2005, 12, 152-156; and Reyes, F. et al., Biologicals, 2013, 41, 275-278.

The conditions of series [3]: DSC, cited from earlier work; for Tm of the N-terminal domain: Johnson et al. 2012. A general note: DSC measures the heat that a sample takes up or gives off during a temperature scan.

Regarding “1-O-octa-(2-Acetamido-2-deoxy-5a-carba-α-D-mannopyranosyl-1-O-phosphoryl)-6-hexyl-amine [carba DP8]”, in series [1], the performance as inhibitor result is reported as “performed as inhibitor comparably to the deOAc CPS”. Further, the IC50 (usually the concentration that gives 50% inhibition) in the series with anti-deOAc MenA serum is 15.9 µM. Moreover, the “inhibition of the binding of the anti-carbaMenA DP8 serum (in words)” value in the series on anti-carbaMenA DP8 serum is reported as “to a greater extent than its conjugated form”. Also, the “anti-MenA CPS response lower than the benchmark MenA-CRM197 conjugate” value in the series with MenA CPS was 2 fold lower. Besides, the “IC50 higher compared to the native CPS” value in series [2] is 4 orders of magnitude. Also, the “recognition of / binding to the anti-MenA mAb” value in series [2] (competitive ELISA, non-acetylated carbaMenA oligomers as inhibitors, CPS coating) is recorded as “binding was observed; also recorded: clearly binding to anti-MenA antibodies”.
Take “wild-type v3: wild-type meningococcal fHbp variant 3 from strain M1239”: in series [3], the “Tm of the N-terminal domain” value was ≤ 60 °C and the “Tm of C-terminal domains” value is ≥ 80 °C.
As for “wild-type v2: wild-type meningococcal fHbp variant 2 from strain 2996”, in series [3], the “Tm of the N-terminal domain” value is ≤ 40 °C and the “Tm of C-terminal domains” value is ≥ 80 °C.
